According to US9493435B2, “IRE-1α inhibitors” (MannKing Corporation, priority 2009, dated 2016):

Experiments:
XBP-1 splicing = XBP-1 splicing in vivo in a model of ER stress (tunicamycin-treated SCID mice); set-up: species or system mouse; conditions: tunicamycin 1 mg/kg IP, 100, 50 or 25 mg/kg orally, 2 hour exposure, RT-PCR
Method: SCID mice were treated with tunicamycin 1 mg/kg IP. Compound no. 12-4 was administered orally two hours later at one of three doses: 100 mg/kg, 50 mg/kg, or 25 mg/kg (2 hour exposure) in 10% hydroxypropyl-beta-cyclodextrin (HPBCD). The total exposure to tunicamycin was 4 hours, and the total exposure to compound 12-4 was 2 hours.
Livers and kidneys were harvested and total RNA was prepared using Trizol. RT-PCR was performed using murine specific XBP1 primers flanking the 26-nt intron and products were separated on 4% agarose gel. The results are shown in FIG. 1B (liver) and FIG. 1C, in which each lane represents an individual mouse (n=4).

[1] = test system: IRE-1α-mediated XBP-1 splicing in human myeloma MM.1s cells; test: Cellular XBP-1 splicing assay in myeloma cells (RT-PCR); assay type: cell-based; conditions: average EC50, endogenous XBP-1 splicing in myeloma cells, DTT stress
Method: After an additional 45 minutes (2 hours total) with compound and DTT, the cells are harvested with TRIZOL® (a mono-phasic solution of phenol and guanidine isothiocyanate), and total RNA is prepared as directed by the manufacturer (Invitrogen). Human XBP-1 is amplified by RT-PCR with the following primers, which flank the 26 base unconventional intron excised by IRE-1α:
RT-PCR of unstressed (U) cells then generates the upper band. When cells are stressed (S) with the endoplasmic reticulum (ER) stressing agent DTT, IRE-1α is activated due to accumulating unfolded protein and the resulting RT-PCR product is 26 base pairs shorter.
Compounds which pass specificity assays are assayed for cellular EC50 using endogenous XBP-1 splicing in myeloma cells. XBP-1 is regulated through the excision of a 26 nucleotide intron from the XBP-1 mRNA by the highly specific endoribonuclease activity of IRE-1α. […] This splicing event is used to measure IRE-1α activity on XBP-1 mRNA in cells and tissues.
Briefly, compounds are incubated in the presence or absence of an ER stress agent (e.g., DTT), and the ratio of XBP-1u (unspliced) to XBP-1s (spliced) is quantified by RT-PCR.

[2] = molecular target: human IRE-1α (GST-IRE-1α) (Homo sapiens (Human), UniProt O75460); test: IRE-1α assay (cleavage of mini-XBP-1 mRNA stem-loop substrate); assay type: biochemical; conditions: average IC50 for inhibition of IRE-1α in vitro
Method: A fusion protein comprising glutathione S transferase (GST) and human IRE-1α (GST-IRE-1α) obtained from a 500 ml baculovirus-infected insect cell culture can be used to measure IRE-1α activity in vitro. Five μl of a reaction mixture comprising 1× reaction buffer (5× reaction buffer is 100 mM Hepes pH 7.5, 250 mM KOAc, 2.5 mM MgCl2), 3 mM DTT, and 0.4% polyethylene glycol water is added to each well of 384 well plates. Twenty-five nanoliters of a 1 mM test compound solution are added to test wells. […] Negative control wells contain only reaction mixture and test compound. After spinning the plates at 1200 rpm for 30 seconds, 3 μl of an IRE-1α human mini-XBP-1 mRNA stem-loop substrate [NT] ID NO:1), labeled with the fluorescent dye Cy5 at the [NT] end, are added to each well of a control plate. The plates are again spun at 1200 rpm for 30 seconds. […] The plates are covered with lids and incubated for one hour at 30° C. The plates are then transferred to an […] microplate reader. Data is analyzed using data analysis software, and the percent activity of IRE-1α is calculated.

[3] = test system: human myeloma RPMI8226 tumor xenografts; test: RPMI8226 xenograft efficacy model; assay type: in vivo, mouse; conditions: SCID mice bearing RPMI8226 xenografts, 0.75 mg/kg IV twice weekly
Method: SCID mice are implanted with tumor cells (human RPMI8226 myeloma cells) via IP, IV or SC routes based on the results from the xenograft model development studies (above). Mice are treated with compound or mock treated (vehicle) for a period of up to 4-5 weeks. Compound administration can be via IV, IP, PO or SC routes. In some cases, tunicamycin is administered via IP injection in order to stimulate stress in the animal. This stress mimics the stress an animal may undergo during times of tumor growth. The tunicaymycin injection mimics tumor growth during times of stress and permits evaluation of biomarkers which indicate the effectiveness of a compound (such as XBP-1 splicing) by RT-PCR, immunohistochemistry, or Western blots.
Mice are monitored for tumor growth, regression and general health. Tumors are collected and characterized by immunohistochemistry and/or FACS analysis. Tumor growth is measured by calipers, ultrasound, or by abdominal lavage. Biomarkers in the blood or tumor can evaluated (primarily XBP-1 splicing).
Tumor cells are cultured and injected IP, IV (tail vein) or SC (flank) in the mouse using a 21G needle in a volume of approx 100 μL. Mice are treated with compounds or vehicle alone as a control by IV, IP, SC or PO routes 5 days per week for up to 4-5 weeks. Blood is collected via retroorbital bleed (100 μA) at 2 time points (different eyes). […]

Sequence of human IRE-1α (GST-IRE-1α) (O75460 19-977): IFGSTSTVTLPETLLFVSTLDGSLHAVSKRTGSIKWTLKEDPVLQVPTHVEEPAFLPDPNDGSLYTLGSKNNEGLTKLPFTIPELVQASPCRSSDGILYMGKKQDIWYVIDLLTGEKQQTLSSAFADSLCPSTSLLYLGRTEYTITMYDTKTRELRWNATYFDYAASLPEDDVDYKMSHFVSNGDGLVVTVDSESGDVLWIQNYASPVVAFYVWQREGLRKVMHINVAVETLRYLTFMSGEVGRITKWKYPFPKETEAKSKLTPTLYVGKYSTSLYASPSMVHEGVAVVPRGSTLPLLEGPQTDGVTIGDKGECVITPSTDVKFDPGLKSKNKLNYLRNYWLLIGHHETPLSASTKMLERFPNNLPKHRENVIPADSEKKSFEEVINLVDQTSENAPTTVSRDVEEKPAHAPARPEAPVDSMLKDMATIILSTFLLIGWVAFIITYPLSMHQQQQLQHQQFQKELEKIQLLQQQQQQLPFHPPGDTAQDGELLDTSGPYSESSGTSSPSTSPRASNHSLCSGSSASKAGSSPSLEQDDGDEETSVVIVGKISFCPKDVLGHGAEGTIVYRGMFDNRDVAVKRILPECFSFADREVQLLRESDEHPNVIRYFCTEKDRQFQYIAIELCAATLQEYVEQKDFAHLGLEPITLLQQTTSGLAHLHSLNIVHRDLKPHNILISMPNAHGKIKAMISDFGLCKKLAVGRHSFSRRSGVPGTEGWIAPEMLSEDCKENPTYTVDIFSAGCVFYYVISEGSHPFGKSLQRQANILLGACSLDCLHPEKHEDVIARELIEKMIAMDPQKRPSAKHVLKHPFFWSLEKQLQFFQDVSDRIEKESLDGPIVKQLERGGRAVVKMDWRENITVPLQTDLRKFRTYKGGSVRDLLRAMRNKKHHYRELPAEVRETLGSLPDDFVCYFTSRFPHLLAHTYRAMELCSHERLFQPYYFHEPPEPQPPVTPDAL

SMILES	EC50 ([1]; Homo sapiens, MM1.S)	IC50 [2]	also measured
Cc1nc(-c2ccc3c(C=O)c(O)ccc3c2)sc1C(=O)N1CCN(C)CC1 [Compound 12-4]			inhibition of XBP-1 splicing in kidney (XBP-1 splicing; kidney): dose-dependent inhibition; inhibition of XBP-1 splicing in liver (XBP-1 splicing; liver): dose-dependent inhibition
O=Cc1c(O)ccc2ccc(N3CCC(C(=O)N4CCCCC4)C3)cc12 (centres unmarked) [Compound 133]	> 10 µM	> 1 µM	
CN(Cc1ccccc1)C(=O)C1CCN(c2ccc3ccc(O)c(C=O)c3c2)C1 (centres unmarked) [Compound 134]	> 10 µM	> 1 µM	
CN(C)C1CCN(c2ccc3ccc(O)c(C=O)c3c2)C1 (centres unmarked) [Compound 135]	> 10 µM	> 1 µM	
O=Cc1c(O)ccc2ccc(N3CCC(N4CCCCC4)C3)cc12 (centres unmarked) [Compound 137]	> 10 µM	> 1 µM	
CN1CCN(C2CCN(c3ccc4ccc(O)c(C=O)c4c3)C2)CC1 (centres unmarked) [Compound 138]	> 10 µM	> 1 µM	
CN1CCC(NC(=O)c2ccc(-c3ccc4c(C=O)c(O)ccc4c3)cc2)CC1 [Compound 143]	< 10 µM	> 1 µM	
CN(Cc1ccccc1)C1CCN(c2ccc3c(C=O)c(O)ccc3c2)C1 (centres unmarked) [Compound 146]	> 10 µM	> 1 µM	
CN(Cc1ccncc1)C1CCN(c2ccc3c(C=O)c(O)ccc3c2)C1 (centres unmarked) [Compound 147]	> 10 µM	> 1 µM	
CN(Cc1ccncc1)C(=O)C1CCN(c2ccc3ccc(O)c(C=O)c3c2)C1 (centres unmarked) [Compound 148]	> 10 µM	> 1 µM	
O=Cc1c(O)ccc2ccc(N3CCC(C(=O)N4CCOCC4)C3)cc12 (centres unmarked) [Compound 149]	> 10 µM	> 1 µM	
CN1CCN(C(=O)C2CCN(c3ccc4ccc(O)c(C=O)c4c3)C2)CC1 (centres unmarked) [Compound 150]	> 10 µM	> 1 µM	
CN(Cc1ccccc1)C1CCN(c2ccc3ccc(O)c(C=O)c3c2)C1 (centres unmarked) [Compound 152]	> 10 µM	> 1 µM	
O=Cc1c(O)ccc2cc(N3CCC(NCc4ccccc4)C3)ccc12 (centres unmarked) [Compound 153]	> 10 µM	> 1 µM	
CN(Cc1ccncc1)C1CCN(c2ccc3ccc(O)c(C=O)c3c2)C1 (centres unmarked) [Compound 155]	> 10 µM	> 1 µM	
CC(=O)NC1CCN(c2ccc3ccc(O)c(C=O)c3c2)C1 (centres unmarked) [Compound 156]	> 10 µM	> 1 µM	
CC(=O)N(C)C1CCN(c2ccc3ccc(O)c(C=O)c3c2)C1 (centres unmarked) [Compound 157]	> 10 µM	> 1 µM	
CC(C)N1CCN(c2ccc3ccc(O)c(C=O)c3c2)CC1 [Compound 159]	> 10 µM	> 1 µM	
CN1CCN(C(=O)COc2ccc3c(C=O)c(O)ccc3c2)CC1 [Compound 165]		> 1 µM	EC50 [1]: > 10 µM
COCCNC(=O)c1ccc(-c2ccc3c(C=O)c(O)ccc3c2)cc1 [Compound 170]		> 1 µM	EC50 [1]: < 10 µM
O=Cc1c(O)ccc2cc(OCC(=O)O)ccc12 [Compound 178]	> 10 µM	> 1 µM	
CC(C)C[C@H](NC(=O)[C@H](Cc1ccccc1)NC(=O)c1cnccn1)B(O)O [bortezomib]			tumor growth [3]: suppression of tumor growth

Further lines, with some results ahead:

EC50 ([1]; Homo sapiens, MM1.S)	IC50 [2]	SMILES	also measured
< 10 µM	< 0.1 µM	COCCNCCNC(=O)c1ccc(-c2ccc3c(C=O)c(O)ccc3c2)cn1 [Compound 125]	
< 10 µM	< 0.1 µM	O=Cc1c(O)ccc2cc(-c3ccc(C(=O)NCCN4CCOCC4)nc3)ccc12 [Compound 126]	
> 10 µM	< 1 µM	CNC(=O)C1CCN(c2ccc3c(C=O)c(O)ccc3c2)C1 (centres unmarked) [Compound 127]	
> 10 µM	> 1 µM	CN(C)C(=O)C1CCN(c2ccc3c(C=O)c(O)ccc3c2)C1 (centres unmarked) [Compound 128]	
> 10 µM	> 1 µM	O=Cc1c(O)ccc2cc(N3CCC(C(=O)N4CCCCC4)C3)ccc12 (centres unmarked) [Compound 129]	
> 10 µM	> 1 µM	CNC(=O)C1CCN(c2ccc3ccc(O)c(C=O)c3c2)C1 (centres unmarked) [Compound 131]	
> 10 µM	> 1 µM	CN(C)C(=O)C1CCN(c2ccc3ccc(O)c(C=O)c3c2)C1 (centres unmarked) [Compound 132]	
< 10 µM	< 0.1 µM	O=Cc1c(O)ccc2cc(-c3ccc(C(=O)NCCN4CCOCC4)cc3)ccc12 [Compound 139]	
< 10 µM	< 0.1 µM	Cc1nc(-c2ccc3c(C=O)c(O)ccc3c2)sc1C(=O)N1CCCC1 [Compound 140]	
< 10 µM	< 0.1 µM	COCCNC(=O)c1sc(-c2ccc3c(C=O)c(O)ccc3c2)nc1C [Compound 141]	
< 10 µM	< 0.1 µM	Cc1nc(-c2ccc3c(C=O)c(O)ccc3c2)sc1C(=O)NCCN1CCOCC1 [Compound 142]	
< 10 µM	< 0.1 µM	Cc1nc(-c2ccc3c(C=O)c(O)ccc3c2)sc1C(=O)NC1CCNCC1 [Compound 144]	
< 10 µM	< 1 µM	Cc1nc(-c2ccc3c(C=O)c(O)ccc3c2)sc1C(=O)NC1CCN(C)CC1 [Compound 145]	
< 10 µM	< 1 µM	O=Cc1c(O)ccc2cc(-c3ccc(C(=O)NC4CCNCC4)nc3)ccc12 [Compound 151]	
< 10 µM	< 1 µM	CC(=O)NC1CCN(c2ccc3c(C=O)c(O)ccc3c2)C1 (centres unmarked) [Compound 154]	
> 10 µM	< 1 µM	CN(Cc1ccncc1)C(=O)C1CCN(c2ccc3c(C=O)c(O)ccc3c2)C1 (centres unmarked) [Compound 158]	
< 10 µM	< 0.1 µM	O=Cc1c(O)ccc2cc(-c3ccc(C(=O)NC4CCCNC4)o3)ccc12 (centres unmarked) [Compound 171]	
> 10 µM	< 1 µM	O=Cc1c(O)ccc2ccc(OS(=O)(=O)C(F)(F)F)cc12 [Compound 177]	
< 10 µM	< 1 µM	N#Cc1ccc(Oc2ccc3c(C=O)c(O)ccc3c2)cc1 [Compound 181]	
< 10 µM	< 0.1 µM	O=Cc1c(O)ccc2cc(Oc3ccc(C(=O)O)cc3)ccc12 [Compound 182]	
